Data published in patent US11447466B2, “Substituted indole compounds useful as inhibitors of TLR7/8/9” (BRISTOL-MYERS SQUIBB COMPANY, priority 2017, dated 2022).

What was measured:
Type in all cases: cell-based
human TLR7 = biological target: T1, human TLR7 (Homo sapiens, UniProt Q9NYK1); assay: TLR7 inhibition reporter assay (HEK-Blue SEAP reporter, gardiquimod stimulation); conditions: HEK-Blue cells overexpressing human TLR7, SEAP reporter, gardiquimod 7.5 μM, 22 hour incubation
T1 construct: host or cells: HEK-Blue cells
T1 sequence (Q9NYK1 27-1049): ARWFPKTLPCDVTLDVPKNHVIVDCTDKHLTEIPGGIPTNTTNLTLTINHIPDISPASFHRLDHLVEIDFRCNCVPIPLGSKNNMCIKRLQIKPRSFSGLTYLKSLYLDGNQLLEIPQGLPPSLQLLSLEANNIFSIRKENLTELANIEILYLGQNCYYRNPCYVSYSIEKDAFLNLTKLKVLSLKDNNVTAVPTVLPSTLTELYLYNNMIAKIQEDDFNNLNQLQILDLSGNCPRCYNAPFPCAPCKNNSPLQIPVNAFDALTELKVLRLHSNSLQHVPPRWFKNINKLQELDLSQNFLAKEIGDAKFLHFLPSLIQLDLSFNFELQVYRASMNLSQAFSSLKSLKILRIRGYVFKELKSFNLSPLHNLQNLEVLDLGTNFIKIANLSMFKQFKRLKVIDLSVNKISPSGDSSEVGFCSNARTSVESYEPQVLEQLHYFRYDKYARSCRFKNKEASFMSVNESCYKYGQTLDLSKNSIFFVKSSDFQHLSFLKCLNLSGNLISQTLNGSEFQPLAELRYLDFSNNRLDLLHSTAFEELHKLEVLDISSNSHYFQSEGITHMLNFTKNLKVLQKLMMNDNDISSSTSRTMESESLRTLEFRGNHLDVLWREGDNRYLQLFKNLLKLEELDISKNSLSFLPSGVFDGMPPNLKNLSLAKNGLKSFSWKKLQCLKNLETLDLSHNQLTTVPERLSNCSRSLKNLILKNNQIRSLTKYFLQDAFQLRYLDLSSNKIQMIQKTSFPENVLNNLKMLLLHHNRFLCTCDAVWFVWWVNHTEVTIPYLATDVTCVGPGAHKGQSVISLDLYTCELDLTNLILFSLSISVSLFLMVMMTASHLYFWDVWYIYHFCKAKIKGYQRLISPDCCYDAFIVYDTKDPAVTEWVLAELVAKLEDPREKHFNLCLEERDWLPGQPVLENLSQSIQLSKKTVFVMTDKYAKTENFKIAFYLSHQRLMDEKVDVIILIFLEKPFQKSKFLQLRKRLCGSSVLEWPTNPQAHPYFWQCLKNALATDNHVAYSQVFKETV
Method in brief: (§1)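 Human TLR7/8/9 HEK-Blue reporter lines; dose range 0.05 nM–50 μM; 30 min RT preincubation; stimulus gardiquimod 7.5 μM / R848 15.9 μM / ODN2006 5 nM respectively; 22 h, 37 °C; SEAP detected colorimetrically.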

human TLR8 = biological target: T2, human TLR8 (Homo sapiens, UniProt Q9NR97); assay: TLR8 inhibition reporter assay (HEK-Blue SEAP reporter, R848 stimulation); conditions: HEK-Blue cells overexpressing human TLR8, SEAP reporter, R848 15.9 μM, 22 hour incubation
T2 construct: host or cells: HEK-Blue cells
T2 sequence (Q9NR97 27-1041): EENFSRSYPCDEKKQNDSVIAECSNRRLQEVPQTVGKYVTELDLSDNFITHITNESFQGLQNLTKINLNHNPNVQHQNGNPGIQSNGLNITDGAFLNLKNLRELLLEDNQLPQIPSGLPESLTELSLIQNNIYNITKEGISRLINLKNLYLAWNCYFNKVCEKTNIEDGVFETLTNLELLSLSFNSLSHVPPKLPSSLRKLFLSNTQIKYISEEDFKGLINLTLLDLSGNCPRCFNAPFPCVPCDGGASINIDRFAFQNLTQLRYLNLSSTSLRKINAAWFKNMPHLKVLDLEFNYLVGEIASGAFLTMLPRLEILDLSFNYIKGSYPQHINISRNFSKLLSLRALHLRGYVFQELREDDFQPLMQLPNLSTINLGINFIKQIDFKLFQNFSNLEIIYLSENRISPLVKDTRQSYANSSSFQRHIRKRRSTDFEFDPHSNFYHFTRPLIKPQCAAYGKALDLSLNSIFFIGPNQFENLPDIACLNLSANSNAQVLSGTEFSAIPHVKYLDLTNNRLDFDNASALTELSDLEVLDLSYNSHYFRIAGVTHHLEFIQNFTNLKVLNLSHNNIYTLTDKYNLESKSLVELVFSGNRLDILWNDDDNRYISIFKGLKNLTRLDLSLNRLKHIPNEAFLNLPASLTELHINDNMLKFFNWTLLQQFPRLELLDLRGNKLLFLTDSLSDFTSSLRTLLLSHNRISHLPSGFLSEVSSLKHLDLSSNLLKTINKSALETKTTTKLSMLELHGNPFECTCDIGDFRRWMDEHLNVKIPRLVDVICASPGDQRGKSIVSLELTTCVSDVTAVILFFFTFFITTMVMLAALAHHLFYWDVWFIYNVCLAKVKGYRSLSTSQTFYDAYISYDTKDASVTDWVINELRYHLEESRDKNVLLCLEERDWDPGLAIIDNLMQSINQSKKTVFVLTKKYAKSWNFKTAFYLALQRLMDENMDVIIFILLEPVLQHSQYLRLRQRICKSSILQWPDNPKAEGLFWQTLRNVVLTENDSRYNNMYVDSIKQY
Method in brief: as §1

human TLR9 = biological target: T3, human TLR9 (Homo sapiens, UniProt Q9NR96); assay: TLR9 inhibition reporter assay (HEK-Blue SEAP reporter, ODN2006 stimulation); conditions: HEK-Blue cells overexpressing human TLR9, SEAP reporter, ODN2006 5 nM, 22 hour incubation
T3 construct: host or cells: HEK-Blue cells
T3 sequence (Q9NR96 26-1032): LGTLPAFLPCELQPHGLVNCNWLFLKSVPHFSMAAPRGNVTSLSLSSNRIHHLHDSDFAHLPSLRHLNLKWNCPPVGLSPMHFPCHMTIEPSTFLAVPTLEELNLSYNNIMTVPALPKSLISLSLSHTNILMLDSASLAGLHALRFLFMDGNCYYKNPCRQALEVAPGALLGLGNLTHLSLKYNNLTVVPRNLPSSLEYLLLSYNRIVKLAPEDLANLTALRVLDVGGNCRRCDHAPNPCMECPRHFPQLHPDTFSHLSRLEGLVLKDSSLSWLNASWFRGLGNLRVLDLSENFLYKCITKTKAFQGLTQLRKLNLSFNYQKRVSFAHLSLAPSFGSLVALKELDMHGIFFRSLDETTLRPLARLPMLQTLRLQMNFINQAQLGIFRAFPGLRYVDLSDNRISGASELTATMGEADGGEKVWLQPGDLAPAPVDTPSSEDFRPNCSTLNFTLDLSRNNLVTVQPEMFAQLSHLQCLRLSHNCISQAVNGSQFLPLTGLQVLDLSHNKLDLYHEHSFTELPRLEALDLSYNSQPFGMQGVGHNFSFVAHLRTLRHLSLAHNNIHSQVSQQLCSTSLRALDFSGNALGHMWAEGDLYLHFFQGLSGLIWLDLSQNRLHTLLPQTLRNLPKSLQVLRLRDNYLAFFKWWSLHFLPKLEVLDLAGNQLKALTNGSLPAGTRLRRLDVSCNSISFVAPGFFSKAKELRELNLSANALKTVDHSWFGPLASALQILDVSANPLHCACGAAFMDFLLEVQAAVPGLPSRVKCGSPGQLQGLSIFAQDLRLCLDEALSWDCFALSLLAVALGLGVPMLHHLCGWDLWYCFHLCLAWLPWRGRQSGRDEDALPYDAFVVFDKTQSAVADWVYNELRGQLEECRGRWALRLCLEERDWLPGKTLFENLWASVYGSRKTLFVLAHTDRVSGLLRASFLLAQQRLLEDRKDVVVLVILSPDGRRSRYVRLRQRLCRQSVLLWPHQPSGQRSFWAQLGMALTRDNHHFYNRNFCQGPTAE
Method in brief: as §1

With `CCn1cc(-c2[nH]c3ccc(C4CCN(C(=O)CN(C)C)CC4)cc3c2C(C)C)c(C)c(C)c1=O` [Example 281, 5-(5-(1-(dimethylglycyl)piperidin-4-yl)-3-isopropyl-1H-indol-2-yl)-1-ethyl-3,4-dimethylpyridin-2(1H)-one] the IC50 (human TLR7) was 47.4 nM, the IC50 (human TLR8) was 29.6 nM and the IC50 (human TLR9) was 5700 nM.
In the case of `CCc1cc(-c2[nH]c3ccc(C4CCNCC4)cc3c2C(C)C)c(C)n(C)c1=O` [Example 25, 3-ethyl-5-(3-isopropyl-5-(piperidin-4-yl)-1H-indol-2-yl)-1,6-dimethylpyridin-2(1H)-one], the IC50 (human TLR7) is reported as 40.3 nM, the IC50 (human TLR8) is reported as 7.8 nM and the IC50 (human TLR9) is reported as 1370 nM.
`CCCN1CCC(c2ccc3[nH]c(-c4cc(-c5ccncc5)c(=O)n(C)c4)c(C(C)C)c3c2)CC1` [Example 336, 5-(3-isopropyl-5-(1-propylpiperidin-4-yl)-1H-indol-2-yl)-1-methyl-[3,4′-bipyridin]-2(1H)-one] was tested, and the IC50 (human TLR7) was 10.2 nM, the IC50 (human TLR8) was 1.2 nM and the IC50 (human TLR9) was 553 nM.
With `CCCN1CCC(c2ccc3[nH]c(-c4cc(C)c(=O)n(C)c4)c(C(C)C)c3c2)CC1` [Example 224, 5-(3-isopropyl-5-(1-propylpiperidin-4-yl)-1H-indol-2-yl)-1,3-dimethylpyridin-2(1H)-one] the IC50 (human TLR7) was 1.8 nM, the IC50 (human TLR8) was 4.5 nM and the IC50 (human TLR9) was 14000 nM.
For `Cc1c(-c2[nH]c3ccc(C4CCN(C5CCOCC5)CC4)cc3c2C(C)C)cn(C)c(=O)c1Cl` [Example 239, 3-chloro-5-(3-isopropyl-5-(1-(tetrahydro-2H-pyran-4-yl)piperidin-4-yl)-1H-indol-2-yl)-1,4-dimethylpyridin-2(1H)-one], the IC50 (human TLR7) was 5.4 nM, the IC50 (human TLR8) was 5.3 nM and the IC50 (human TLR9) was 5810 nM.
Compound `CC(C)c1c(-c2cc(-c3cccc(C#N)c3)c(=O)n(C)c2)[nH]c2ccc(C3CCNCC3)cc12` [Example 56, 3-(5-(3-isopropyl-5-(piperidin-4-yl)-1H-indol-2-yl)-1-methyl-2-oxo-1,2-dihydropyridin-3-yl)benzonitrile] has an IC50 (human TLR7) of 13.7 nM, an IC50 (human TLR8) of 49 nM and an IC50 (human TLR9) of 408 nM.
Work on `CCCN1CCC(c2ccc3[nH]c(-c4cc(-c5cnc(C(F)(F)F)nc5)c(=O)n(C)c4)c(C(C)C)c3c2)CC1` [Example 339, 5-(3-isopropyl-5-(1-propylpiperidin-4-yl)-1H-indol-2-yl)-1-methyl-3-(2-(trifluoromethyl)pyrimidin-5-yl) pyridin-2(1H)-one] yielded an IC50 (human TLR7) of 28.9 nM, an IC50 (human TLR8) of 2140 nM and an IC50 (human TLR9) of 1020 nM.
`Cc1cc(-c2[nH]c3ccc(C4CCN(Cc5cc(Cl)ccc5F)CC4)cc3c2C(C)C)cn(C)c1=O` [Example 80, 5-(5-(1-(5-chloro-2-fluorobenzyl)piperidin-4-yl)-3-isopropyl-1H-indol-2-yl)-1,3-dimethylpyridin-2(1H)-one] was tested, and the IC50 (human TLR7) was 128 nM, the IC50 (human TLR8) was 141 nM and the IC50 (human TLR9) was 48800 nM.
Work on `CCn1cc(-c2[nH]c3ccc(C4CCN(CC(=O)N(C)C)CC4)cc3c2C(C)C)cc(C)c1=O` [Example 133, 2-(4-(2-(1-ethyl-5-methyl-6-oxo-1,6-dihydropyridin-3-yl)-3-isopropyl-1H-indol-5-yl)piperidin-1-yl)-N,N-dimethylacetamide] yielded an IC50 (human TLR7) of 24.1 nM, an IC50 (human TLR8) of 6.2 nM and an IC50 (human TLR9) of 14900 nM.
`Cc1cc(-c2[nH]c3ccc(C4CCNCC4)cc3c2C(C)C)cn(CCO)c1=O` [Example 30, 1-(2-hydroxyethyl)-5-(3-isopropyl-5-(piperidin-4-yl)-1H-indol-2-yl)-3-methylpyridin-2(1H)-one] gave an IC50 (human TLR7) of 8.4 nM, an IC50 (human TLR8) of 10.1 nM and an IC50 (human TLR9) of 2390 nM.
Compound `CCCn1cc(CN2CCC(c3ccc4[nH]c(-c5cc(C)c(=O)n(C)c5)c(C(C)C)c4c3)CC2)cn1` [Example 228, 5-(3-isopropyl-5-(1-((1-propyl-1H-pyrazol-4-yl)methyl)piperidin-4-yl)-1H-indol-2-yl)-1,3-dimethylpyridin-2(1H)-one] has an IC50 (human TLR7) of 3.6 nM, an IC50 (human TLR8) of 4.3 nM and an IC50 (human TLR9) of 4270 nM.
In the case of `Cc1cc(-c2[nH]c3ccc(C4CCN(CC(=O)N5CCC(=O)N5)CC4)cc3c2C(C)C)cn(C)c1=O` [Example 121, 5-(3-isopropyl-5-(1-(2-oxo-2-(3-oxopyrazolidin-1-yl)ethyl)piperidin-4-yl)-1H-indol-2-yl)-1,3-dimethylpyridin-2(1H)-one], the IC50 (human TLR7) is reported as 40.7 nM, the IC50 (human TLR8) is reported as 102 nM and the IC50 (human TLR9) is reported as at least 50000 nM.
With `CCCCN1CCC(c2ccc3[nH]c(-c4cn(C)c(=O)c(Cl)c4C)c(C(C)C)c3c2)CC1` [Example 251, 5-(5-(1-butylpiperidin-4-yl)-3-isopropyl-1H-indol-2-yl)-3-chloro-1,4-dimethylpyridin-2(1H)-one] the IC50 (human TLR7) was 3.5 nM, the IC50 (human TLR8) was 8.1 nM and the IC50 (human TLR9) was 3530 nM.
`CNC(=O)CN1CCC(c2ccc3[nH]c(-c4cn(C)c(=O)c(C)c4C)c(C(C)C)c3c2)CC1` [Example 135, 2-(4-(3-isopropyl-2-(1,4,5-trimethyl-6-oxo-1,6-dihydropyridin-3-yl)-1H-indol-5-yl)piperidin-1-yl)-N-methylacetamide] gave an IC50 (human TLR7) of 5.3 nM, an IC50 (human TLR8) of 5.6 nM and an IC50 (human TLR9) of 19000 nM.
